What was measured:
Assay in all cases: biochemical
Set-up in all cases: DiscoverX KINOMEscan scanMAX competition binding panel, single concentration, percent of control; remaining binding: dose or concentration left out as unconfirmed
Details in all cases: KINOMEscan binding, percent of control; read-out: Table S4_SCANMAX REPORT - related to Fig. 1 / Percent Control
[1] = target: GRK1 (Homo sapiens, UniProt Q15835)
[2] = target: SRPK2 (Homo sapiens, UniProt P78362)
[3] = target: T1, ABL1(Q252H)-phosphorylated (Homo sapiens, UniProt P00519, Q252H)
T1 construct: phosphorylated

[4] = target: MARK1 (Homo sapiens, UniProt Q9P0L2)
Sequence of MARK1 (Q9P0L2 whole entry): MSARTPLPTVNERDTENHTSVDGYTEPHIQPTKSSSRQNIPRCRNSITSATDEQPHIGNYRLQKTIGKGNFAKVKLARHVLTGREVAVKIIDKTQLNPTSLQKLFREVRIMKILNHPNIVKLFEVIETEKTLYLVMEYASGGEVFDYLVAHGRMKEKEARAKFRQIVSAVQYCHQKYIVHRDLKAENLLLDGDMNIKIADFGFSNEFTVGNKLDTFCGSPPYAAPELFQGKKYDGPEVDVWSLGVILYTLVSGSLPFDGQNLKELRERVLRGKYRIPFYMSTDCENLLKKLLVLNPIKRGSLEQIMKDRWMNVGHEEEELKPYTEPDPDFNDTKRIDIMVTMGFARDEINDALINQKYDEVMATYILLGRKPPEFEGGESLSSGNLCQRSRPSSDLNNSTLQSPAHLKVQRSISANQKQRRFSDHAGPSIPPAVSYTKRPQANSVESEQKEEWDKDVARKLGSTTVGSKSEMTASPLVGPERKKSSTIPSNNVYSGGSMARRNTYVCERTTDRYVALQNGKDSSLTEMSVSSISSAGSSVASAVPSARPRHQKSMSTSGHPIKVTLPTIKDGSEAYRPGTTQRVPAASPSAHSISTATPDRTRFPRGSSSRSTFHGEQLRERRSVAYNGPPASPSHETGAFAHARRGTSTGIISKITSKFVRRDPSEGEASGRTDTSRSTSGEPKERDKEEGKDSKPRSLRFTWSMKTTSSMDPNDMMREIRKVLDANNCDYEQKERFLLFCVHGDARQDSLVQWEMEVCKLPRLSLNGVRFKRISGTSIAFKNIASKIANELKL

[5] = target: CHEK2 (Homo sapiens, UniProt O96017)
[6] = target: PDGFRA (Homo sapiens, UniProt P16234)
[7] = target: T2, FAK (Homo sapiens, UniProt Q05397)
T2 construct: gene PTK2

[8] = target: RET(M918T) (Homo sapiens, UniProt P07949, M918T)
[9] = target: ZAP70 (Homo sapiens, UniProt P43403)
[10] = target: PRKCD (Homo sapiens, UniProt Q05655)
[11] = target: PAK2 (Homo sapiens, UniProt Q13177)
[12] = target: FGFR3(G697C) (Homo sapiens, UniProt P22607, G697C)
Sequence of FGFR3(G697C) (P22607 whole entry G697C): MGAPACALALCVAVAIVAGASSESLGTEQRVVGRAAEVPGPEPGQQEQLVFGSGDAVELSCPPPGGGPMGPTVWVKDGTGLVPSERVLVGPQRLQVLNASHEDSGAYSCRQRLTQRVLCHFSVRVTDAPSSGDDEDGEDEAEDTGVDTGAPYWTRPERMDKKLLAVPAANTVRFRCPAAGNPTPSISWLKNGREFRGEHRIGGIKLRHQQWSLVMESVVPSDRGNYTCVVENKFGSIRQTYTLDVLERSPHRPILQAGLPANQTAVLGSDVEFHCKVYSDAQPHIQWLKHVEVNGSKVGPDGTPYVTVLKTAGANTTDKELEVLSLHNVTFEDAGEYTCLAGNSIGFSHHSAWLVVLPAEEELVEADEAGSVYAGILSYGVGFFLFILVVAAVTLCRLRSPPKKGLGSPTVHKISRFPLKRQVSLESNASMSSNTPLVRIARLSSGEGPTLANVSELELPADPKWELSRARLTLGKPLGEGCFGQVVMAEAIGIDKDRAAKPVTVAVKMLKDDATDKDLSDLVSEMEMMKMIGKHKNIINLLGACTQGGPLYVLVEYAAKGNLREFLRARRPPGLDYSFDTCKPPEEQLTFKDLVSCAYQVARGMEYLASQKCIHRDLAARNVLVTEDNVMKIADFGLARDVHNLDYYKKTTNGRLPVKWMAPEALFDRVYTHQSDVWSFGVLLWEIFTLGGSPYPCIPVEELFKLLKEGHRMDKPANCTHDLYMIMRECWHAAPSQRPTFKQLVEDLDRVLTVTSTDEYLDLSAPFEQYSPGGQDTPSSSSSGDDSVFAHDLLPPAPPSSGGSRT

[13] = target: T3, TRKC (Homo sapiens, UniProt Q16288)
T3 construct: gene NTRK3

[14] = target: PAK1 (Homo sapiens, UniProt Q13153)
[15] = target: NLK (Homo sapiens, UniProt Q9UBE8)
Sequence of NLK (Q9UBE8 whole entry): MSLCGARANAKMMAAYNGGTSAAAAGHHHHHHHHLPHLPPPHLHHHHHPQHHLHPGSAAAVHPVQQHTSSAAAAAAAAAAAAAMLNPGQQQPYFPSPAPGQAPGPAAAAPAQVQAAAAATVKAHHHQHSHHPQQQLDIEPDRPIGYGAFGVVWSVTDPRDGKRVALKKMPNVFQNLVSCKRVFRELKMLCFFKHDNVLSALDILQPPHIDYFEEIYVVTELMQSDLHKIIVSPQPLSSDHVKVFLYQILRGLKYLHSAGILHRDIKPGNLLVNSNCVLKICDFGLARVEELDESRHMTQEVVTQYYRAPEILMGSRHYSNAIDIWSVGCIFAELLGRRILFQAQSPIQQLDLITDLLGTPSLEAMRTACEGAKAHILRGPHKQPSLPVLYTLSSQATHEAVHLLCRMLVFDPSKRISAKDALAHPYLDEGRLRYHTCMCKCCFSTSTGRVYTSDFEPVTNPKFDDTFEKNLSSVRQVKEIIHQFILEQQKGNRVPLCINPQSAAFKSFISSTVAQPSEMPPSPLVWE

[16] = target: PIK3CB (Homo sapiens, UniProt P42338)
[17] = target: ABL2 (Homo sapiens, UniProt P42684)
[18] = target: T4, SgK110 (Homo sapiens, UniProt P0C264)
T4 construct: gene SBK3
T4 sequence (P0C264 whole entry): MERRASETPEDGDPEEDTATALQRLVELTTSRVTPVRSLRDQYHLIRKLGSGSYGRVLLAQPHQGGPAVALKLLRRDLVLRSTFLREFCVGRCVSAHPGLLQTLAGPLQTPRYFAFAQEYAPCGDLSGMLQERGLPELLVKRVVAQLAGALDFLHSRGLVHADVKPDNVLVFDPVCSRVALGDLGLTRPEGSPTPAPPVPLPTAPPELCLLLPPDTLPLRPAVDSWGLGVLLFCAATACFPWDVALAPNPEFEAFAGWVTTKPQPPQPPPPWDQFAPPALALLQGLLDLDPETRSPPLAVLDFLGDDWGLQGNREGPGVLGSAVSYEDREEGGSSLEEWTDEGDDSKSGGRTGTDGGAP

[19] = target: ERBB4 (Homo sapiens, UniProt Q15303)
Sequence of ERBB4 (Q15303 whole entry): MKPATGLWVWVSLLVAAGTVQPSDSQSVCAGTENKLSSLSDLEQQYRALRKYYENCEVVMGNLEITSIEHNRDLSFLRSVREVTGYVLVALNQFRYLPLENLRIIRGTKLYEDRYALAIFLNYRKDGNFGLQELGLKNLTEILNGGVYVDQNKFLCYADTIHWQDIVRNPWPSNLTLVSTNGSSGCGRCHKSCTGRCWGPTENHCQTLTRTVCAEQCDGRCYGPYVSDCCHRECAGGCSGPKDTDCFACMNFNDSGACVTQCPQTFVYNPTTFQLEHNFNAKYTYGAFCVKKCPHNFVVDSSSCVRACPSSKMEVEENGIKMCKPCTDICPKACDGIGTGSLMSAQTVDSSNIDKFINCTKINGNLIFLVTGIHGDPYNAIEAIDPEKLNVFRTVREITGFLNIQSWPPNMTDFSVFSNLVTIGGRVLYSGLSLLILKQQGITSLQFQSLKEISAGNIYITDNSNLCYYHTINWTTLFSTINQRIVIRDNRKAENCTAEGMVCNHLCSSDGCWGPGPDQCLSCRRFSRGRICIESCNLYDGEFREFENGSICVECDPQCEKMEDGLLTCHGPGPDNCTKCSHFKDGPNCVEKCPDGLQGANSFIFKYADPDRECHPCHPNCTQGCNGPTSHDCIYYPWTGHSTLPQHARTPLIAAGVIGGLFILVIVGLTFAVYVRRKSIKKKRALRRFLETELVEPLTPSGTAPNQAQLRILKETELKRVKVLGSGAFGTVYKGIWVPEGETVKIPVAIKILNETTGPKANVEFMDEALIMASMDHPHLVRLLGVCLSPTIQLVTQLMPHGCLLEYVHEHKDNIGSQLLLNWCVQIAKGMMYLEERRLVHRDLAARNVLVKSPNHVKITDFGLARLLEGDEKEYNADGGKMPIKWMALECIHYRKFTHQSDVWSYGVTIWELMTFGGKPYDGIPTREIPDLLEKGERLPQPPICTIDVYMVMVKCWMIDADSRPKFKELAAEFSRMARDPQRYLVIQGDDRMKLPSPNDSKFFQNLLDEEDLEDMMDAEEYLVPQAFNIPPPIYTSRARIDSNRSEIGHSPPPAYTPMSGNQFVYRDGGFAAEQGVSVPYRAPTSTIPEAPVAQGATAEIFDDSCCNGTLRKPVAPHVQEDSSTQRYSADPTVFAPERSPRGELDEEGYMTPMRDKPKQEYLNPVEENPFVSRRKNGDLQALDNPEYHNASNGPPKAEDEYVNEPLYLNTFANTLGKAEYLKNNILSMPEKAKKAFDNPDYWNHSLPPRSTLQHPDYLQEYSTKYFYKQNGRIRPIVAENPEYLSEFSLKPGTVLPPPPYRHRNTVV

Sequence of SRPK2 (P78362 whole entry): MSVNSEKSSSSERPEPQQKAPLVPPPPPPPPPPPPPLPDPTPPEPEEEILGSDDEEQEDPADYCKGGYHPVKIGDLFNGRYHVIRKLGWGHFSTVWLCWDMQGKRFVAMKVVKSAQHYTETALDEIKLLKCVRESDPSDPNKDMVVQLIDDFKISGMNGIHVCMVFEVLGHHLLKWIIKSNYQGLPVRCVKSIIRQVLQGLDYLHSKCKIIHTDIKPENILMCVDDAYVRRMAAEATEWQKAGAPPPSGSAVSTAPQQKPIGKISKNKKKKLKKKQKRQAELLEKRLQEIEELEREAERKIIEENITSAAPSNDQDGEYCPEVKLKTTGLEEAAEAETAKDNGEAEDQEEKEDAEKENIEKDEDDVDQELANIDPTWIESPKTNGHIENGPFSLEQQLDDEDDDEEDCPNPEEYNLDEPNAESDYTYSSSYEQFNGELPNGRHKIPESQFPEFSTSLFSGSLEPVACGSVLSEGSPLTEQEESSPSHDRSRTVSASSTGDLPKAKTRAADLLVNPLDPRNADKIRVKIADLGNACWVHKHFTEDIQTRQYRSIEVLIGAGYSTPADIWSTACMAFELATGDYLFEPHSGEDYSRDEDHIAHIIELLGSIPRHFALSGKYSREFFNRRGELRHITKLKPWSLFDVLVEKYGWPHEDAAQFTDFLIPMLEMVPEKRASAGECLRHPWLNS
Sequence of GRK1 (Q15835 whole entry): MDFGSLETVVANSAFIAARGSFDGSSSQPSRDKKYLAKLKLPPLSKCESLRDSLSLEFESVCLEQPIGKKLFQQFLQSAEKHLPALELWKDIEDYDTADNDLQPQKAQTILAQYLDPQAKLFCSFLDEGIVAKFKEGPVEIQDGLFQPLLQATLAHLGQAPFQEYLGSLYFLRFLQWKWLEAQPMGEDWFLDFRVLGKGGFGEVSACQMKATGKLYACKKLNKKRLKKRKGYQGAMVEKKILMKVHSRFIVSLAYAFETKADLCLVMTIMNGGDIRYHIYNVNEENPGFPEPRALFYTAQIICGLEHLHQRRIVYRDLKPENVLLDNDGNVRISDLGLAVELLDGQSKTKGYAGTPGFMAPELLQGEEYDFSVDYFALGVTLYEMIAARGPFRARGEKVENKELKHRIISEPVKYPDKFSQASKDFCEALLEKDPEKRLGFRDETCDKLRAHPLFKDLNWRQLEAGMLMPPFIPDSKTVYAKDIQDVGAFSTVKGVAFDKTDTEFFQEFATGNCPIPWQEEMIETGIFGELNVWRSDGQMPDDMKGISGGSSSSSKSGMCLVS

With `c1ccc2c(c1)Sc1ccccc1N2CCN1CCOCC1` [J54] as the molecule, how does the remaining binding [1] read?
Its remaining binding is 100%.

What about the remaining binding [2] of the same molecule?
Its remaining binding is 100%.

And the remaining binding [3]?
The remaining binding was 90%.

And the remaining binding [4]?
The remaining binding was 94%.

What about the remaining binding [5] of the same molecule?
The remaining binding was 100%.

And the remaining binding [6]?
The remaining binding was 100%.

What about the remaining binding [7] of the same molecule?
Its remaining binding is 92%.

What about the remaining binding [8] of the same molecule?
The remaining binding was 97%.

What about the remaining binding [9] of the same molecule?
The remaining binding was 100%.

What about the remaining binding [10] of the same molecule?
Its remaining binding is 100%.

What about the remaining binding [11] of the same molecule?
Its remaining binding is 76%.

What about the remaining binding [12] of the same molecule?
The remaining binding was 100%.

What about the remaining binding [13] of the same molecule?
Its remaining binding is 81%.

What about the remaining binding [14] of the same molecule?
The remaining binding was 93%.

And the remaining binding [15]?
Its remaining binding is 91%.

What about the remaining binding [16] of the same molecule?
Its remaining binding is 100%.

What about the remaining binding [17] of the same molecule?
The remaining binding was 100%.

What about the remaining binding [18] of the same molecule?
Its remaining binding is 100%.

What about the remaining binding [19] of the same molecule?
Its remaining binding is 100%.

— article PMC7486443, “Generation of Phenothiazine with Potent Anti-TLK1 Activity for Prostate Cancer Therapy” (iScience, 2020)
